Consider 31 substances from patent US20250281523A1, “SULFATED GLYCOSAMINOGLYCAN COMPOUNDS, METHODS, AND USES THEREOF” (California Institute of Technology, priority 2024, published 2025).

One test has as its target T1, FGF4 (Homo sapiens, UniProt P08620).
T1 construct: purchased Peprotech
T1 sequence (P08620 31-206): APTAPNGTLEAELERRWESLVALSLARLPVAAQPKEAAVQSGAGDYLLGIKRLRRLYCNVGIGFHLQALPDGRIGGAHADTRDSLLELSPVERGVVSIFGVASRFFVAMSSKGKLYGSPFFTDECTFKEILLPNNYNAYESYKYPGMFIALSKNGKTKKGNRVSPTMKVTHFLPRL
The test is described as follows: HS tetrasaccharide microarray binding assay, FGF4. As to conditions: glycan microarray, compound 50 μM, normalized to the compound with greatest binding. The protocol:
(§1) Heparan sulfate tetrasaccharide microarray fabrication. HS oligosaccharides were dissolved in sodium phosphate buffer (pH 8.5, 50 mM) in 9 concentrations: 200 μM, 100 μM, 50 μM, 25 μM, 12.5 μM, 6.25 μM, 3.13 μM, 1.57 μM, 0.79 μM. The robotic arrayer SX (from Scienion, Berlin, Germany) delivered 414 pL of the solution containing oligosaccharides (9 spots per concentration) to the array slides using dispensing nozzle PDC80, P-2040, under ˜50% relative humidity at 20° C. […] The slides were incubated in a chamber with saturated (NH4)2SO4 solution (81% relative humidity) for 24 h at 20° C., and unreacted HS oligosaccharides were removed from the slides by rinsing with deionized water. The remaining N-hydroxysuccinimide (NHS) ester groups were blocked by placing slides in a solution containing 50 mM ethanolamine in PBST (137 mM NaCl, 13 mM Na2HPO4, 1.6 mM NaH2PO4, 2.7 mM KCl, 0.010% Tween-20) at 50° C. for 1.5 h. Slides were rinsed several times with deionized water, dried by centrifugation, and stored before use.
(§2) HS tetrasaccharide microarray binding assay and array slide processing. The slide was blocked with 10% BSA in TBST (4.0 mL) with gentle rocking at RT for 1 h, followed by submerging in TBST. This condition was empirically determined to reduce nonspecific binding of proteins to the microarray and to provide optimal signal-to-noise ratios. Next, 5.0 μL of the primary detection protein ([…], 0.50 μg/mL) solution was transferred to 2.5 mL of TBST w/1% BSA in a chamber and the slide was incubated with gentle shaking for 1 h at RT. The slide was then washed two times for 5 min each in TBST (4.0 mL) while gently rocking. After the washes, the slide was incubated with the appropriate biotinylated antibody ([…], 0.50 μg/mL) in 1% BSA in TBST solution (3.0 mL) with gentle rocking for 1 h. The slide was then washed two times for 5 min in TBST (5.0 mL) while gently rocking. Next, the slide was incubated with 4.0 mL of Alexa Fluor 647-conjugated streptavidin detection solution (1.0 μg/mL in TBST w/1% BSA) in the dark with gentle rocking for 1 h, washed with TBST (5.0 mL, two times) followed by PBS (45 mL, two times) and ddH2O (45 mL, two times), and then dried under a gentle stream of 0.2 micron-filtered air. For his-tagged FGF2, detection was accomplished with an AF647-labeled anti-his antibody. All incubations and washes were carried out at RT unless otherwise noted. The microarray was scanned and analyzed at 647 nm using an Agilent G2565CA Microarray Scanner, and fluorescence quantification was performed using ImageJ software with correction for local background. To ensure accurate signal quantification, the average signal intensity was calculated over a fixed area for all spots. Results were plotted with Prism 9 software at a single concentration as background corrected fluorescence values normalized to the compound with the highest signal. Bar graphs represent the mean±SD for each compound (50 μM) in nonuplicate. Each experiment was performed 2-3 times. Heat maps were generated in Excel with columns sorted by sulfation status of the amino positions and rows sorted by sulfation status of the 2-O- and 6-O-hydroxyl groups.

In a further test the target is T2, CXCL8 (interleukin-8) (Homo sapiens, UniProt P10145).
T2 construct: recombinant human IL-8 (CXCL8) (77 a.a.) (>95% purity); purchased Peprotech
T2 sequence (P10145 23-99 limits assumed): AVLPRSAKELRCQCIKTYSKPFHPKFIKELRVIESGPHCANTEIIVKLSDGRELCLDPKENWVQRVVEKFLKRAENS
Nature of the test: HS tetrasaccharide microarray binding assay, CXCL8. As to conditions: glycan microarray, compound 50 μM, normalized to the compound with greatest binding. How it is done:
as §1, §2

The next test has as its target T3, FGF2 (Homo sapiens, UniProt P09038).
T3 construct: purchased Sino Biological
Nature of the test: HS tetrasaccharide microarray binding assay, FGF2. The settings on record: glycan microarray; for relative binding of FGF2: compound 50 μM, normalized to the compound with greatest binding. How it is done:
as §1, §2

T3 sequence (P09038 143-288): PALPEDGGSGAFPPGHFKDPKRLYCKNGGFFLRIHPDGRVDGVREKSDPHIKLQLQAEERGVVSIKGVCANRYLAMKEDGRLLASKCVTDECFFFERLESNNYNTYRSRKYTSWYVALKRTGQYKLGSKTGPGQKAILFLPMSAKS

“GlcNS-IdoA2S-GlcNAc-IdoA-R [Compound 15]”: at FGF4, the “relative binding of FGF4” value is given as 16%.

With “GlcNAc-IdoA2S-GlcNS6S-IdoA2S-R [Compound 46]”, on FGF4, the “relative binding of FGF4” value is recorded as 32%. Besides, at CXCL8 (interleukin-8), the “relative binding of CXCL8” value is 47%.

Take “GlcNAc6S-IdoA2S-GlcNS-IdoA-R [Compound 42]”: the “FGF2 binding (in words)” value on FGF2 was “abolished FGF2 binding”.

For the substance “GlcNAc-IdoA2S-GlcNS-IdoA2S-R [Compound 26]”, on CXCL8 (interleukin-8), the “relative binding of CXCL8” value worked out at 43%.

For the substance “GlcNS-IdoA-GlcNS6S-IdoA2S-R [Compound 24]”, on CXCL8 (interleukin-8), the “relative binding of CXCL8” value turned out to be 63%.

Take “GlcNS6S-IdoA-GlcNAc6S-IdoA2S-R [Compound 51]”: at FGF2, the “FGF2 binding (in words)” value is “abolished FGF2 binding” and the “relative binding of FGF2” value is given as 3%. Moreover, on FGF4, the “relative binding of FGF4” value is listed as 67%. For the same substance, the “relative binding of CXCL8” value on CXCL8 (interleukin-8) worked out at 47%.

On to “GlcNS-IdoA2S-GlcNAc6S-IdoA-R [Compound 35]”, for which the “relative binding of FGF2” value at FGF2 is reported as 38%. Moreover, on FGF4, the “relative binding of FGF4” value was 44%. On CXCL8 (interleukin-8), the “relative binding of CXCL8” value is recorded as 33%.

Consider “GlcNS-IdoA2S-GlcNS6S-IdoA2S-R [Compound 48]”, for which, on FGF2, the “relative binding of FGF2” value is given as 77%. Further, on FGF4, the “relative binding of FGF4” value was 49%. Also, the “relative binding of CXCL8” value at CXCL8 (interleukin-8) was 61%.

“GlcNS-IdoA2S-GlcNS6S-IdoA-R [Compound 36]”: on CXCL8 (interleukin-8), the “relative binding of CXCL8” value is on record as 49%.

As to “GlcNAc6S-IdoA2S-GlcNS6S-IdoA2S-R [Compound 62]”, the “relative binding of FGF2” value at FGF2 worked out at 28%. Moreover, on FGF4, the “relative binding of FGF4” value was found to be 27%.

For the substance “GlcNS6S-IdoA-GlcNAc-IdoA2S-R [Compound 31]”, the “FGF2 binding (in words)” value at FGF2 was “abolished FGF2 binding”.

For “GlcNS6S-IdoA2S-GlcNAc-IdoA-R [Compound 43]”, at FGF4, the “relative binding of FGF4” value is 16%.

As to “GlcNS6S-IdoA-GlcNAc6S-IdoA-R [Compound 39]”, at FGF2, the “relative binding of FGF2” value is listed as 2%. On FGF4, the “relative binding of FGF4” value amounted to 43%. Besides, the “relative binding of CXCL8” value at CXCL8 (interleukin-8) came out at 17%.

“GlcNAc-IdoA2S-GlcNS6S-IdoA-R [Compound 34]”: on FGF2, the “FGF2 binding (in words)” value is recorded as “abolished FGF2 binding”.

Regarding “GlcNAc6S-IdoA2S-GlcNS6S-IdoA-R [Compound 58]”, at FGF2, the “FGF2 binding (in words)” value is “abolished FGF2 binding”. In addition, the “relative binding of FGF4” value on FGF4 came out at 10%.

For the substance “GlcNS-IdoA2S-GlcNS-IdoA2S-R [Compound 28]”, the “relative binding of FGF4” value at FGF4 is 42%. For the same substance, the “relative binding of CXCL8” value at CXCL8 (interleukin-8) turned out to be 63%.

“GlcNS6S-IdoA2S-GlcNAc6S-IdoA-R [Compound 59]”: on FGF4, the “relative binding of FGF4” value is given as 83%. The “relative binding of CXCL8” value at CXCL8 (interleukin-8) stood at 53%.

In the case of “GlcNS6S-IdoA2S-GlcNS6S-IdoA2S-R [Compound 64]”, the “relative binding of FGF2” value on FGF2 was 100%. In addition, the “relative binding of FGF4” value on FGF4 is recorded as 81%.

On to “GlcNS6S-IdoA-GlcNS6S-IdoA2S-R [Compound 52]”, for which the “relative binding of FGF2” value at FGF2 amounted to 45%. In addition, the “relative binding of CXCL8” value on CXCL8 (interleukin-8) was found to be 43%.

On to “GlcNS-IdoA2S-GlcNAc6S-IdoA2S-R [Compound 47]”, for which, at FGF4, the “relative binding of FGF4” value is given as 95%. Also, the “relative binding of CXCL8” value at CXCL8 (interleukin-8) is recorded as 100%.

For the substance “GlcNS-IdoA-GlcNAc6S-IdoA-R [Compound 11]”, the “relative binding of FGF2” value at FGF2 was found to be 0.7%. The “relative binding of CXCL8” value at CXCL8 (interleukin-8) is reported as 3.3%.

Take “GlcNS6S-IdoA2S-GlcNAc-IdoA2S-R [Compound 55]”: on FGF4, the “relative binding of FGF4” value was 43%.

As for “GlcNS-IdoA-GlcNAc6S-IdoA2S-R [Compound 23]”, on FGF2, the “FGF2 binding (in words)” value is recorded as “abolished FGF2 binding” and the “relative binding of FGF2” value is on record as 2%. For the same substance, the “relative binding of CXCL8” value at CXCL8 (interleukin-8) is listed as 29%.

For the substance “GlcNS-IdoA2S-GlcNAc-IdoA2S-R [Compound 27]”, the “relative binding of FGF4” value at FGF4 is 35%. For the same substance, the “relative binding of CXCL8” value on CXCL8 (interleukin-8) is 25%.

On to “GlcNAc-IdoA2S-GlcNS-IdoA-R [Compound 14]”, for which, on FGF2, the “FGF2 binding (in words)” value is “abolished FGF2 binding”.

Turning to “GlcNS6S-IdoA2S-GlcNS-IdoA2S-R [Compound 56]”, the “relative binding of FGF2” value at FGF2 was determined as 63%. Further, the “relative binding of FGF4” value on FGF4 is on record as 56%.

As to GlcNS-IdoA-GlcNAc-IdoA2S-R [Compound 7], the “FGF2 binding (in words)” value on FGF2 is on record as “abolished FGF2 binding”.

Consider “GlcNAc6S-IdoA2S-GlcNAc6S-IdoA2S-R [Compound 61]”, for which the “relative binding of FGF2” value on FGF2 came out at 2%.

With “GlcNS6S-IdoA-GlcNS6S-IdoA-R [Compound 40]”, the “relative binding of FGF2” value on FGF2 came to 3%. The “relative binding of FGF4” value on FGF4 came to 52%.

Regarding “GlcNS6S-IdoA2S-GlcNAc6S-IdoA2S-R [Compound 63]”, the “relative binding of FGF2” value on FGF2 is on record as 70%. Besides, at FGF4, the “relative binding of FGF4” value is listed as 100%. Further, the “relative binding of CXCL8” value at CXCL8 (interleukin-8) stood at 75%.

Take “GlcNS6S-IdoA2S-GlcNS6S-IdoA-R [Compound 60]”: the “relative binding of FGF2” value on FGF2 amounted to 39%. The “relative binding of FGF4” value on FGF4 turned out to be 38%. Besides, the “relative binding of CXCL8” value on CXCL8 (interleukin-8) is reported as 43%.
